Data reported in US11642344B2, “Cholesteryl ester transfer protein (CETP) inhibitor and pharmaceutical compositions comprising said inhibitor for use in the treatment or prevention of cardiovascular diseases” (NewAmsterdam Pharma B.V., priority 2014, dated 2023).

Assays:
Type in all cases: in vivo, human
[1] = Clinical repeated dose study: safety assessments; settings: repeated doses up 25 mg once daily
Experimental: (§1) The clinical study was a repeated dose study in 5 groups of Caucasian male subjects aged 18 to 55 years. Each subject received a single oral dose of Compound A/placebo on Day 1, followed by once daily doses on Days 8 to 35 (5 mg Compound A/placebo—Group 1) or Days 8 to 28 (1, 2.5, 10 and 25 mg Compound A/placebo—Groups 2 to 5). All doses were administered at the study center after a standard breakfast. Subjects in each dose group were allocated to study treatment in a ratio of 10 Compound A to 2 placebo. Blood samples for pharmacokinetic and pharmacodynamic (CETP activity, CETP concentration, HDL-C, LDL-C, total cholesterol, triglycerides) assessments were collected from prior to each dose and at intervals throughout the study until 336 hours after the last dose. Secondary pharmacodynamic endpoints (including apolipoproteins A1, A2, B, and E, HDL2-C, HDL3-C, phospholipids, HDL-free cholesterol [HDL-FC], HDL-cholesteryl ester [HDL-CE], HDL-phospholipids [HDL-PL], HDL-triglycerides [HDL-TG], and LDL particle size) were measured at intervals until the last day of dosing. Urine was collected for pharmacokinetics from pre dose and at intervals up to 72 hours after the first and last dose. Safety assessments including adverse events, blood pressure and pulse rate, ECGs, laboratory safety tests (including aldosterone) and physical examinations were conducted throughout both studies.

[2] = Clinical repeated dose study: pharmacokinetics (LC/MS/MS plasma concentrations)
Experimental: as §1
(§2) Plasma and urine concentrations of Compound A were determined using validated liquid chromatography with tandem mass spectrometry (LC/MS/MS) methods. The lower limit of quantification (LLQ) for both assays was 0.500 ng/mL. Plasma concentration of CETP was determined using a validated enzyme-linked immunosorbent assay (ELISA) method with a lower limit of quantification (LLQ) of 0.500 μg/mL. CETP activity was determined as the rate of [^3H]-labeled CE transfer from donor HDL to acceptor VLDL/LDL. [^3H]CE-labeled HDL was added to human plasma and incubated for 4 hours at 37° C. Non-HDL lipoproteins were precipitated and separated from HDL, and the amount of radioactivity in the supernatant was quantitated. CETP activity was determined as the difference of the radioactivity between the samples incubated at 37° C. and 4° C. HDL-C and LDL-C were measured by homogenous enzymatic colorimetric assay using a Modular analyser (Roche Diagnostics). Total cholesterol and triglycerides were measured by homogenous enzymatic assay using a Modular analyser (cholesterol oxidase peroxidase-peroxidase aminophenazone phenol [CHOP-PAP]) method and a glycerol phosphate oxidase [GPO-PAP] method, respectively. ApoA1, ApoA2, ApoB and ApoE were measured by immunoturbidimetry using reagents from Rolf Greiner Biochemica (Germany) and N-apoprotein standard serum from Siemens (Germany). LDL particle size was determined by gradient gel electrophoresis. HDL fraction was separated by a combined ultracentrifugation-precipitation method (Beta-quantification). HDL-2 and HDL-3 fractions were then separated by further ultracentrifugation. Total-cholesterol in HDL, HDL-2 and HLD-3 fractions, free cholesterol in HDL fraction, triglycerides in HDL fraction and phospholipids in plasma and HDL-fraction were measured using enzymatic methods and reagents from Diasys Diagnostics (Germany). The measurements were performed on an Olympus AU600 automatic analyzer and were calibrated using secondary standards from Roche Diagnostics (Total-cholesterol, triglycerides) and Diasys Diagnostics (free cholesterol, phospholipids), respectively. Esterified cholesterol was calculated as the difference between total-cholesterol and free cholesterol.
(§3) The sample sizes for the study were chosen based on practical considerations rather than statistical power. The numbers of subjects in each group were considered to be adequate to assess the main objectives of each study. Subjects were allocated to Compound A or placebo in each group by means of a computer-generated randomization code. […]

[3] = system: HDL-C, LDL-C, total cholesterol, triglycerides; assay: Clinical repeated dose study: HDL-C, LDL-C, total cholesterol, triglycerides and secondary lipid variables; settings: for Maximum % change from baseline in HDL-C concentration / Maximum % change from baseline in LDL-C concentration / Maximum % change from baseline in Total cholesterol / Maximum % change from baseline in Triglycerides: repeated oral doses, steady state, mean
Experimental: as §1, §2, §3

[4] = steady state, for a 25-fold increase in dose

CCOC(=O)N1c2ccc(C(F)(F)F)cc2[C@@H](N(Cc2cc(C(F)(F)F)cc(C(F)(F)F)c2)c2ncc(OCCCC(=O)O)cn2)C[C@H]1CC [Compound A, {4-[(2-{[3,5-bis(trifluoromethyl)benzyl][(2R,4S)-1-(ethoxycarbonyl)-2-ethyl-6-(trifluoromethyl)-1,2,3,4-tetrahydroquinolin-4-yl]amino}pyrimidin-5-yl)oxy]butanoic acid}]
effect on serum electrolyte or aldosterone concentrations [1]: no effect
effects on blood pressure or heart rate, ECG variables, physical examination or laboratory safety tests [1]: no clinically significant effects
serious adverse events [1]: no serious adverse events
tolerability [1]: well tolerated
accumulation with once daily dosing ([2]; 1 mg): approximately 6 fold
accumulation with once daily dosing ([2]; 25 mg): 2 fold
residual effects on cessation of dosing ([2]; at the claimed dose (1 to 25 mg per day)): does not show prolonged residual effects
food effects ([2]; clinical studies): does not suffer from food effects
half-life ([2]; male, human, plasma, oral, following the last dose, independent of dose, read-out: mean terminal half-life): 5.04 to 6.29 days
Tmax ([2]; male, human, plasma, oral, post-dose, independent of dose, 1 to 25 mg, read-out: Tmax (median)): 4 to 6 h
CVs for Cmax, Cmin and AUC parameters ([2]; single and multiple dosing): ≤ 33%
increase of plasma concentrations with dose ([2]; single doses from 1 to 25 mg): approximately proportionally to dose
increase in AUC0-tau,ss [2, 4]: 9 fold
increase in Cmax,ss [2, 4]: 12 fold
increase in Cmin,ss [2, 4]: 7 fold
Maximum % change from baseline in HDL-C concentration ([3]; 1 mg once daily): 37.9%
Maximum % change from baseline in LDL-C concentration ([3]; 1 mg once daily): −29.6%
Maximum % change from baseline in Total cholesterol ([3]; 1 mg once daily): −12.7%
Maximum % change from baseline in Triglycerides ([3]; 1 mg once daily): −50.2%
Maximum % change from baseline in HDL-C concentration ([3]; 2.5 mg once daily): 95.6%
Maximum % change from baseline in LDL-C concentration ([3]; 2.5 mg once daily): −39.1%
Maximum % change from baseline in Total cholesterol ([3]; 2.5 mg once daily): −7.9%
Maximum % change from baseline in Triglycerides ([3]; 2.5 mg once daily): −45.8%
Maximum % change from baseline in HDL-C concentration ([3]; 5 mg once daily): 118%
Maximum % change from baseline in LDL-C concentration ([3]; 5 mg once daily): −41.7%
Maximum % change from baseline in Total cholesterol ([3]; 5 mg once daily): −1.4%
Maximum % change from baseline in Triglycerides ([3]; 5 mg once daily): −20.3%
Maximum % change from baseline in HDL-C concentration ([3]; 10 mg once daily): 140%
Maximum % change from baseline in LDL-C concentration ([3]; 10 mg once daily): −43.6%
Maximum % change from baseline in Total cholesterol ([3]; 10 mg once daily): 3.7%
Maximum % change from baseline in Triglycerides ([3]; 10 mg once daily): −22.2%
Maximum % change from baseline in HDL-C concentration ([3]; 25 mg once daily): 136%
Maximum % change from baseline in LDL-C concentration ([3]; 25 mg once daily): −53.2%
Maximum % change from baseline in Total cholesterol ([3]; 25 mg once daily): 7.5%
Maximum % change from baseline in Triglycerides ([3]; 25 mg once daily): −31.4%
changes in LDL particle size ([3]; repeated doses 1 to 25 mg): no noteworthy changes
